Patent US20230041743A1, “1,8-NAPHTHYRIDIN-2-ONE COMPOUNDS FOR THE TREATMENT OF AUTOIMMUNE DISEASE” (Hoffmann-La Roche Inc., priority 2019, published 2023)

Tests used:
human TLR9 = target: T1, human TLR9 (Homo sapiens, UniProt Q9NR96); experiment: HEK293-Blue-hTLR-9 cells assay (SEAP reporter, ODN2006 stimulation); format: cell-based; conditions: HEK293-Blue-hTLR9 cells, ODN2006 ligand, 20 hrs incubation; read-out: HEK/hTLR9 IC50
T1 construct: host or cells: HEK293 (HEK-Blue hTLR9)
T1 sequence (Q9NR96 26-1032): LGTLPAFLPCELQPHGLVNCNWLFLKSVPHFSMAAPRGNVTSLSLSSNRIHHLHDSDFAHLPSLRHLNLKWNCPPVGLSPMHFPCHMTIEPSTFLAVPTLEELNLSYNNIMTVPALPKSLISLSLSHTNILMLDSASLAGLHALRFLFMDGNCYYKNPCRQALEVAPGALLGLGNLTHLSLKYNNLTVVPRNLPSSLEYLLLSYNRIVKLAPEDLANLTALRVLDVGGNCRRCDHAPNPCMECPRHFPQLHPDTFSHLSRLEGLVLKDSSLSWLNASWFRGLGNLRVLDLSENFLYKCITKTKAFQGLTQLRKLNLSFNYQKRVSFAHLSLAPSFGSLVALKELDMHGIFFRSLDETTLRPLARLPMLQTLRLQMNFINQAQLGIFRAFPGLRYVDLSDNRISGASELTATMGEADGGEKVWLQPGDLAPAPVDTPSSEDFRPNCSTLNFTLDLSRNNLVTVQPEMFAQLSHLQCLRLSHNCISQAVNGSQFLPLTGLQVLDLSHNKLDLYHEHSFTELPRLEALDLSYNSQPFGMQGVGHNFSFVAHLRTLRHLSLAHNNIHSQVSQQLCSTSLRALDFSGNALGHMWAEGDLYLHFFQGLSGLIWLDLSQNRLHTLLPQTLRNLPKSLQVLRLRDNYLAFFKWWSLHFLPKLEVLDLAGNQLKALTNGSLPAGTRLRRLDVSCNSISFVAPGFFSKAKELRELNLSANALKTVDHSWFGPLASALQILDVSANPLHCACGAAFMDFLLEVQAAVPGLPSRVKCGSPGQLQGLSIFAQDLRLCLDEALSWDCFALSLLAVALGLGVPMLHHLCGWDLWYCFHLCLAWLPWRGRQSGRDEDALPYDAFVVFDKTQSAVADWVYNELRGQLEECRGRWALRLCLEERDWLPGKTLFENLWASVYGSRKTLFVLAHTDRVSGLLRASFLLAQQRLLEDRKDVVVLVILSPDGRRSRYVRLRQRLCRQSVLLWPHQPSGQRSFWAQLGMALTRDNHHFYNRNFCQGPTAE
Text: HEK293-Blue-hTLR-9 Cells Assay:
A stable HEK293-Blue-hTLR-9 cell line was purchased from InvivoGen (Cat. #: hkb-htlr9, San Diego, Calif., USA). These cells were originally designed for studying the stimulation of human TLR9 by monitoring the activation of NF-κB. A SEAP (secreted embryonic alkaline phosphatase) reporter gene was placed under the control of the IFN-β minimal promoter fused to five NF-κB and AP-1-binding sites. The SEAP was induced by activating NF-κB and AP-1 via stimulating HEK-Blue hTLR9 cells with TLR9 ligands. Therefore the reporter expression was declined by TLR9 antagonist under the stimulation of a ligand, such as ODN2006 (Cat. #: tlrl-2006-1, Invivogen, San Diego, Calif., USA), for incubation of 20 hrs. The cell culture supernatant SEAP reporter activity was determined using QUANTI-Blue™ kit (Cat. #: rep-qb1, Invivogen, San Diego, Calif., USA) at a wavelength of 640 nm, a detection medium that turns purple or blue in the presence of alkaline phosphatase.
HEK293-Blue-hTLR9 cells were incubated at a density of 250,000˜450,000 cells/mL in a volume of 170 μL in a 96-well plate in Dulbecco's Modified Eagle's medium (DMEM) containing 4.5 g/L glucose, 50 U/mL penicillin, […], 2 mM L-glutamine, 10% (v/v) heat-inactivated fetal bovine serum with addition of 20 μL test compound in a serial dilution in the presence of final DMSO at 1% and 10 μL of 20 uM ODN2006 in above DMEM, perform incubation under 37° C. in a CO2 incubator for 20 hrs. Then 20 μL of the supernatant from each well was incubated with 180 μL Quanti-blue substrate solution at 37° C. for 2 h and the absorbance was read at 620˜655 nm using a spectrophotometer. The signaling pathway that TLR9 activation leads to downstream NF-κB activation has been widely accepted, and therefore similar reporter assay was modified for evaluating TLR9 antagonist.

[1] = Human microsomal stability assay; format: in vitro ADME; conditions: human liver microsomes, 1 μM test compound, 0.5 mg/mL protein, 37° C.; low <7.0, medium 7.0-16.2, high 16.2-23.2
Procedure: Human Microsomal Stability Assay
Human liver microsomes (Cat. NO.: 452117, Corning, USA) were preincubated with test compound for 10 minutes at 37° C. in 100 mM potassium phosphate buffer, pH 7.4. The reactions were initiated by adding NADPH regenerating system. The final incubation mixtures contained 1 μM test compound, 0.5 mg/mL liver microsomal protein, 1 mM MgCl2, 1 mM NADP, 1 unit/mL isocitric dehydrogenase and 6 mM isocitric acid in 100 mM potassium phosphate buffer, pH 7.4. After incubation times of 0, 3, 6, 9, 15 and 30 minutes at 37° C., 300 μL of cold ACN (including internal standard) was added to 100 μL incubation mixture to terminate the reaction. Following precipitation and centrifugation, 100 uL supernatant will be taken out and added 300 uL water.
The amount of compound remaining in the samples was determined by LC-MS/MS. Controls of no NADPH regenerating system at zero and 30 minutes were also prepared and analyzed. The results were categorized as: low (<7.0 mL/min/kg), medium (7.0-16.2 mL/min/kg) and high (16.2-23.2 mL/min/kg).

Row | IC50 (human TLR9) [nM] | CL (h) [1] [mL/min/kg] | SMILES
1 | 136 | 9.5 | C[C@@H]1CN(c2cc(=O)n(C)c3ncccc23)C[C@@H]2c3ccc(N4CC5(CN(C)C5)C4)cc3CN12 [Example 2, 4-[(4R,10bS)-4-methyl-8-(6-methyl-2,6-diazaspiro[3.3]heptan-2-yl)-3,4,6,10b-tetrahydro-1H-pyrazino[2,1-a]isoindol-2-yl]-1-methyl-1,8-naphthyridin-2-one]
2 | 132 | 9.8 | C[C@@H]1CN(c2cc(=O)n(C)c3ncccc23)C[C@@H]2c3ccc(C4CCNC4)cc3CN12 (stereo partly drawn) [Example 26, 4-[(4R,10bS)-4-methyl-8-pyrrolidin-3-yl-3,4,6,10b-tetrahydro-1H-pyrazino[2,1-a]isoindol-2-yl]-1-methyl-1,8-naphthyridin-2-one]
3 | 192 | 6.2 | C[C@@H]1CN(c2cc(=O)n(C)c3ncccc23)C[C@@H]2c3ccc(N4CCNCC4)cc3CN12 [Example 12, 4-[(4R,10bS)-4-methyl-8-piperazin-1-yl-3,4,6,10b-tetrahydro-1H-pyrazino[2,1-a]isoindol-2-yl]-1-methyl-1,8-naphthyridin-2-one]
4 | 101 | 8.5 | C[C@@H]1CN(c2cc(=O)n(C)c3ncccc23)C[C@@H]2c3ccc(N4CCC[C@@H](N)C4)cc3CN12 [Example 16, 4-[(4R,10bS)-8-[(3R)-3-amino-1-piperidyl]-4-methyl-3,4,6,10b-tetrahydro-1H-pyrazino[2,1-a]isoindol-2-yl]-1-methyl-1,8-naphthyridin-2-one]

Row | SMILES | IC50 (human TLR9) [nM] | CL (h) [1] [mL/min/kg]
5 | C[C@@H]1CN(c2cc(=O)n(C)c3ncccc23)C[C@@H]2c3ccc([C@H]4C[C@H]5COC[C@@H](C4)N5)cc3CN12 [Example 28A, 4-[(4R,10bS)-4-methyl-8-(endo-3-oxa-9-azabicyclo[3.3.1]nonan-7-yl)-3,4,6,10b-tetrahydro-1H-pyrazino[2,1-a]isoindol-2-yl]-1-methyl-1,8-naphthyridin-2-one] | 153 | 9.2
6 | C[C@@H]1CN(c2cc(=O)n(C)c3ncccc23)C[C@@H]2c3ccc(N4CC5CCC(C4)N5)cc3CN12 [Example 21, 4-[(4R,10bS)-8-(3,8-diazabicyclo[3.2.1]octan-3-yl)-4-methyl-3,4,6,10b-tetrahydro-1H-pyrazino[2,1-a]isoindol-2-yl]-1-methyl-1,8-naphthyridin-2-one] | 138 | 6.4
